Measured values: patent US7951548B2, “IL-13 production inhibitor” (Takeda Pharmaceutical Company Limited, priority 2005, dated 2011)

Assays:
Type in all cases: cell-based
[1] = tested on: other receptor expression cells; assay: cAMP production inhibitory activity on other receptor expression cells
[2] = tested on: mouse bone marrow-derived mast cells; assay: MAPK activation: phosphorylation of ERK1/2 in mouse bone marrow-derived mast cells (BMMC); conditions: BMMC
Method: BMMC was established by collecting bone marrow fluid from the femur of male BALB/c mouse (Japan SLC), rinsing in RPMI1640 (Nikken Bio Medical Laboratory) and then incubating in a medium (RPMI1640, 50% WEHI-3 culture supernatant, 10% FBS (GIBCO), penicillin/streptomycin (BIOWHITTAKER), Non-Essential amino acids (GIBCO)) for 4 weeks. The cells were incubated in a CO2 incubator immediately before assay. Pertussis toxin (hereinafter PTX) was added to the cells in a final concentration of 0.1 μg/mL 4 hours before assay. BMMC was washed in ice-chilled assay buffer (Tyrode Buffer, 0.01% fatty acid free-BSA (SIGMA), 1 mM CaCl2, 1 mM MgCl2), and suspended in 2×10^6 cells/ml. The suspension was dispensed in a 1.5 mL tube followed by preincubation for 15 minutes at 37° C. The lysoPS solution and A23187 solution (Wako Pure Chemicals) as a positive control were added in equimolar amounts. After incubation at 37° C., the reaction was terminated by quenching. The cells were precipitated by centrifugation and the assay buffer was aspirated. After washing in PBS, 1×SDS sample buffer/DTT was added to the cells to lyse the cells. After ultrasonication for 15 seconds, the sample was heated at 95° C. for 5 minutes followed by quenching.
Detection by SDS-PAGE and western blotting were performed as follows. After separation using 10% Bis-Tris gel (Invitrogen), the gel was transferred to Immuno-Blot PVDF Membrane (BIO-RAD). The membrane was blocked with Block Ace (Dai-Nippon Pharmaceutical) and incubated at 4° C. overnight with a primary antibody (Phospho-p42/p44 MAP Kinase (Thr202/Thr204) Antibody (CST) or p42/p44 MAP Kinase Antibody (CST)) and further incubated at room temperature for an hour using a secondary antibody (Anti-rabbit IgG (CST)). The membrane after the antibody reaction was visualized by chemiluminescence using ECL PLUS (Amersham Biosciences). Detection and image analysis were performed using LAS1000 (FUJI FILM).

GPR34 = molecular target: T1, GPR34 (Homo sapiens, UniProt Q9UPC5); assay: DNA synthesis activity (tritium-labeled thymidine) of human GPR34-expressed CHO cells; conditions: serum-free medium, 16 hours
T1 construct: expressed in transfected cells
Method: The human GPR34-expressed CHO cells prepared by the procedure as described in REFERENCE EXAMPLE 1 were plated at a cell density of 20,000 cells/well on a 96-well plate charged with serum-free medium. The cells were allowed to stand for 4 hours, 0, 0.1, 0.3, 1 and 3 μM lysoPS was added thereto, respectively, followed by incubation for 16 hours. After 1 μCi/well of tritium-labeled thymidine (Amersham, TRK120) was added to achieve labeling for 4 hours, fixation was performed in 10% trichloroacetic acid. Solubilization in an aqueous sodium hydroxide solution was followed by neutralization in trichloroacetic acid to collect DNA with a cell harvester. The radioactivity on the filter was taken as DNA synthesis activity.

[3] = tested on: rat primary culture microglial cells (PMGC); assay: Changes of intracellular calcium levels in rat primary culture microglial cells (FLIPR); conditions: 0.2 to 10 μM lysoPS
Method: The reactivity of rat primary culture microglial cells (PMGC) with lysoPS was examined using FLIPR. PMGC was incubated in DMEM (Invitrogen) supplemented with 10% calf fetal serum (Invitrogen), unless otherwise indicated. PMGC, which was prepared from the brain of rat of one day old one day before assay, was plated on a Black walled 96-well plate (Costar) at 5.0×10^4 cells/well, and incubated overnight at 37° C. in a CO2 incubator adjusted to 5% CO2. After lysoPS was added to the PMGC, changes of intracellular calcium levels in this case were assayed using FLIPR (Molecular Device). To assay the changes of intracellular calcium levels on FLIPR, the following pretreatment was performed. First, an assay buffer was prepared to incorporate fluorescent dye Fluo-3AM (DOJIN) in the cells or wash the cells immediately before the FLIPR assay. To a solution of 20 ml of 1M HEPES (pH 7.4) (DOJIN) to 1000 ml of HBSS (Invitrogen) (hereinafter, HBSS/HEPES solution), 10 ml of the solution mixture obtained by dissolving 710 mg of Probenecid (Sigma) in 5 ml of 1N NaOH and further adding 5 ml of the HBSS/HEPES solution thereto was added. The resulting solution was used as an assay buffer. Next, 50 μg of Fluo-3AM was dissolved in 21 μl of DMSO (DOJIN) and an equal volume of 20% Pluronic acid (Molecular Device) was further mixed therewith. […]

[4] = tested on: rat peritoneal mast cells; assay: Degranulation of rat peritoneal mast cells (β-hexosaminidase activity in supernatant); conditions: for degranulation: 20 minutes
Method: The rat peritoneal mast cells (RPMC) obtained by the procedure described in EXAMPLE 1 were subjected to passive sensitization for 30 minutes on ice using DNP IgE (Yamasa, 10 μg/ml), washed and plated on a 96-well plate in a final cell concentration of 100,000 cells/well in the reaction solution. RPMC was stimulated by lysoPS and DNP-BSA (Carbiochem) and the plate was centrifuged 20 minutes after. The β-hexosaminidase activity in the supernatant of the reaction solution was assayed using the degradation activity of 4-methylumbeliferryl-2-acetamido-2-deoxy-β-D-glucopyranoside (Wako Pure Chemicals) as an indicator.

T1 sequence (Q9UPC5 whole entry): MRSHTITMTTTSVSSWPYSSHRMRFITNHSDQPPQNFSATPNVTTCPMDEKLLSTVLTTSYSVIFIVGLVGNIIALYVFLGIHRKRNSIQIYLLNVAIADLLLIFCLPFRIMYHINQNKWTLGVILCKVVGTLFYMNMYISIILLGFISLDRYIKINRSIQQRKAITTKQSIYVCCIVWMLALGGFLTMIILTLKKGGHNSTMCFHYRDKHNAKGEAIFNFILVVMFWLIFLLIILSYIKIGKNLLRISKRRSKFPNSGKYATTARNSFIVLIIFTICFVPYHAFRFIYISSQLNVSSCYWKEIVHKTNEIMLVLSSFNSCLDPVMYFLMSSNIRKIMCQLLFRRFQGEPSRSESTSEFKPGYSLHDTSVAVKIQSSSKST

lysophosphatidylserine [lysoPS]
cAMP production inhibitory action on other receptor expression cells [1]: not noted
phosphorylation of ERK1/2 30 minutes after the stimulation [2]: the phosphorylation was observed
time of maximum response of ERK1/2 phosphorylation after the stimulation [2]: about 2 minutes
DNA synthesis activity, increase (GPR34; 0.1 μM lysoPS): 1.1 times
DNA synthesis activity, increase (GPR34; 0.3 μM lysoPS): 1.2 times
DNA synthesis activity, increase (GPR34; 1 μM lysoPS): 2.0 times
DNA synthesis activity, increase (GPR34; 3 μM lysoPS): 3.2 times
increase in intracellular calcium levels [3]: responded concentration-dependently
degranulation ([4]; 100 ng/ml DNP-BSA with 0.1 μM lysoPS added simultaneously): 8.4%
degranulation ([4]; 100 ng/ml DNP-BSA with 0.3 μM lysoPS added simultaneously): 14.7%
degranulation ([4]; 100 ng/ml DNP-BSA with 1 μM lysoPS added simultaneously): 26.0%
degranulation ([4]; 100 ng/ml DNP-BSA with 3 μM lysoPS added simultaneously): 36.7%
degranulation ([4]; 100 ng/ml DNP-BSA with 10 μM lysoPS added simultaneously): 45.2%
degranulation (in words) ([4]; 0.1 to 10 μM lysoPS with 100 ng/ml DNP-BSA): increased concentration-dependently
